Assay results: patent US20190040106A1, “USE OF HUMAN DERIVED IMMUNOSUPPRESSIVE PROTEINS AND PEPTIDES AS MEDICAMENTS” (AIMVION A/S, priority 2015, published 2019)
Bridge positions count the residues as written; N and C are the ends. Ends that are not written are not given here. Peptide text beside a SMILES is read from it. I, II: the chains in the order shown.

Tests used:
[1] = test system: murine model of collagen-induced arthritis; experiment: Collagen-induced arthritis model (CIA model), Example 9; format: in vivo, female DBA/1J mice; set-up: key to terminal individual paw score, Front right, group mean / terminal individual paw score, Front left, group mean / terminal individual paw score, Rear right, group mean / terminal individual paw score, Rear left, group mean: paw score 0 = no arthritis to 4 = severe arthritis of entire paw; key to Arthritic Index (AI), group mean: sum of four paw scores, each 0 (no arthritis) to 4 (severe); max 16; conditions: for Arthritic Index (AI), group mean: peptide 4 μg/mouse, methotrexate 3 mg/kg, subcutaneous
Description: The CIA model is the “standard” animal model for evaluation of anti-arthritic activity based on immunization with bovine collagen to develop antibodies against bone and cartilage.
(§1) The aim was to determine anti-arthritic dosing paradigm in a murine model of collagen-induced arthritis. This study was carried out in female DBA/1J mice. The effect of the Env59 ISU peptides on disease development is compared with a methotrexate MTX (positive control) or saline treated control group.
Day 0: The mice were weighted and injected subcutaneously at the nape of the neck as in the table below (table 3):
(§2) An hour later, the mice were injected subcutaneously at the base of the tail with 50 μl of the collagen/CFA emulsion.
(§3) Mice were scored for signs of arthritis every Monday, Wednesday, and Friday during the next 41 days as follows: • Each paw receives a score • 0=no visible effects of arthritis • 1=edema and/or erythema of 1 digit • 2=edema and/or erythema of 2 digits • 3=edema and/or erythema of more than 2 digits • 4=severe arthritis of entire paw and digits
(§4) The Arthritic Index (AI) was calculated by the addition of individual paw scores.
(§5) Day 42 The mice were weighted and scored for signs of arthritis.

[2] = test system: murine model of collagen-induced arthritis; experiment: Collagen-induced arthritis model (CIA model), study number 2, Example 12; format: in vivo, female DBA/1J mice; set-up: key to Terminal Individual Paw Score, Front right, group mean / Terminal Individual Paw Score, Front left, group mean / Terminal Individual Paw Score, Rear right, group mean / Terminal Individual Paw Score, Rear left, group mean: 0 = no arthritis, 4 = severe arthritis of entire paw; key to Arthritic Index (AI), group mean: sum of four paw scores, each 0 = none to 4 = severe; conditions: for Terminal Individual Paw Score, Front left, group mean / Terminal Individual Paw Score, Front right, group mean / Terminal Individual Paw Score, Rear left, group mean / Terminal Individual Paw Score, Rear right, group mean: day 42; for Arthritic Index (AI), group mean: peptides 4 μg/mouse, methotrexate 1 mg/kg, subcutaneous; for effect on diseased mouse weight / incidence of disease / reduction in disease severity: once daily subcutaneous 4 μg/mouse; for incidence of disease: starting one hour prior to disease induction; for reduction in disease severity: at the termination of the study
Description: The CIA model as described in an Example 9 is the “standard” animal model for evaluation of anti-arthritic activity based on immunization with bovine collagen to develop antibodies against bone and cartilage.
as §1, with “Here we present data on investigating in vivo effect of the HERV-Env59, SG#2, and SG#5 and SG#15 peptides. The aim” for “The aim”, “Env59 ISU peptide, SG#2, SG#5 or SG#15 peptide on disease” for “Env59 ISU peptides on disease”
Day 0: The mice were weighted and injected subcutaneously at the nape of the neck as in the table below (table 6):
as §2, §3, §4, §5

[3] = test system: THP-1 or HT-1080 cells; experiment: CellTiter-Blue Cell Viability Assay, toxicity profile of peptides; conditions: about 20 h exposure
Excerpt: Here, we examined the cytotoxicity effect of peptides SG#1 to SG#17 (ID1031 to ID1047) on two human cell lines THP-1 or HT-1080 cells.
The CellTiter-Blue® Cell Viability Assay provides a homogenous, fluorometric method for estimating the number of viable cells present in multiwall plates. It uses the indicator dye resazurin to measure the metabolic capacity of cells—an indicator of cell viability. Viable cells retain the ability to reduce resazurin into resorufin, which is highly fluorescent.
The CellTiter-Blue® Reagent is a buffered solution containing highly purified resazurin. Resazurin is dark blue in color and has little intrinsic fluorescence. However, when it is reduced to resorufin, it becomes pink and highly fluorescent (579EX/584EM).
• 1. Set up 96-well assay plates containing cells in culture medium. For HT-1080, plate 1.6×10^4 cells per well on the Day 1 of the experiment. Cells are plated in 100 μl complete culture medium (DMEM) per well. • 2. On day 2, gently remove medium and add 50 μl of complete DMEM medium, add peptides and vehicle controls to appropriate wells so the final volume is 100 μl in each well. Supplement with complete DMEM where necessary. • 3. Culture cells for the desired test exposure period, about 20 h. • 4. On day 3, remove assay plates from 37° C. incubator and add 20 μl/well of CellTiter-Blue® Reagent. • 5. Shake for 10 seconds. • 6. Incubate using standard cell culture conditions for 4 hours. • 7. Shake plate for 10 seconds and record fluorescence at 560/590 nm
Toxicity profile for peptides SG#1 to SG#17 (ID1031 to ID1047). All peptides were tested at the dosage increment (10 nm, 30 nM, 100 nM, 1 μM, 10 μM, 30 μM, 100 μM and 300 μM).

Molecule: CN(Cc1cnc2nc(N)nc(N)c2n1)c1ccc(C(=O)N[C@@H](CCC(=O)O)C(=O)O)cc1 [Methotrexate, reference compound]
- terminal individual paw score, Front left, group mean ([1]; day 42): 0
- terminal individual paw score, Front right, group mean ([1]; day 42): 0
- terminal individual paw score, Rear left, group mean ([1]; day 42): 0
- terminal individual paw score, Rear right, group mean ([1]; day 42): 0
- Arthritic Index (AI), group mean ([1]; study day 21): 0
- Arthritic Index (AI), group mean ([1]; study day 22): 0
- Arthritic Index (AI), group mean ([1]; study day 25): 0
- Arthritic Index (AI), group mean ([1]; study day 27): 0
- Arthritic Index (AI), group mean ([1]; study day 29): 0
- Arthritic Index (AI), group mean ([1]; study day 32): 0
- Arthritic Index (AI), group mean ([1]; study day 34): 0
- Arthritic Index (AI), group mean ([1]; study day 36): 0
- Arthritic Index (AI), group mean ([1]; study day 38): 0
- Arthritic Index (AI), group mean ([1]; study day 41): 0
- Arthritic Index (AI), group mean ([1]; study day 42): 0
- Terminal Individual Paw Score, Front left, group mean [2]: 0
- Terminal Individual Paw Score, Front right, group mean [2]: 0
- Terminal Individual Paw Score, Rear left, group mean [2]: 0
- Terminal Individual Paw Score, Rear right, group mean [2]: 0
- Arthritic Index (AI), group mean ([2]; study day 14): 0
- Arthritic Index (AI), group mean ([2]; study day 21): 0
- Arthritic Index (AI), group mean ([2]; study day 25): 0
- Arthritic Index (AI), group mean ([2]; study day 27): 0
- Arthritic Index (AI), group mean ([2]; study day 29): 0
- Arthritic Index (AI), group mean ([2]; study day 32): 0
- Arthritic Index (AI), group mean ([2]; study day 34): 0
- Arthritic Index (AI), group mean ([2]; study day 36): 0
- Arthritic Index (AI), group mean ([2]; study day 39): 0
- Arthritic Index (AI), group mean ([2]; study day 41): 0
- Arthritic Index (AI), group mean ([2]; study day 42): 0

Molecule: CC[C@H](C)[C@H](NC(=O)[C@H](CO)NC(=O)[C@H](CC(C)C)NC(=O)CNC(=O)[C@H](CCCCNC(=O)[C@H](CC(C)C)NC(=O)CNC(=O)[C@H](CCCNC(=N)N)NC(=O)[C@H](CCCNC(=N)N)NC(=O)[C@H](CC(N)=O)NC(=O)[C@H](CCC(N)=O)NC(=O)[C@@H](N)CC(C)C)NC(=O)[C@H](CC(C)C)NC(=O)CNC(=O)[C@H](CCCNC(=N)N)NC(=O)[C@H](CCCNC(=N)N)NC(=O)[C@H](CC(N)=O)NC(=O)[C@H](CCC(N)=O)NC(=O)[C@@H](N)CC(C)C)C(=O)N[C@@H](CC(C)C)C(=O)N[C@@H](CC(C)C)C(=O)N[C@@H](CC(N)=O)C(=O)N[C@@H](CCC(=O)O)C(=O)N[C@@H](CCC(=O)O)C(=O)O [SG#16] (I: H-LQNRRGLKGLSILLNEE-OH / II: H-LQNRRGL; amide I:8-II:C)
- Toxicity yes/no at the 300 μM conc. [3]: No

Molecule: GLSILLNEECGPGPGP (Possibly HERV) [SG#5]
- Terminal Individual Paw Score, Front left, group mean [2]: 1.3
- Terminal Individual Paw Score, Front right, group mean [2]: 1.1
- Terminal Individual Paw Score, Rear left, group mean [2]: 0.3
- Terminal Individual Paw Score, Rear right, group mean [2]: 1.0
- effect on diseased mouse weight [2]: no effect
- incidence of disease [2]: 80%
- reduction in disease severity [2]: 70%
- Arthritic Index (AI), group mean ([2]; study day 14): 0
- Arthritic Index (AI), group mean ([2]; study day 21): 0
- Arthritic Index (AI), group mean ([2]; study day 25): 0
- Arthritic Index (AI), group mean ([2]; study day 27): 0.0
- Arthritic Index (AI), group mean ([2]; study day 29): 0.9
- Arthritic Index (AI), group mean ([2]; study day 32): 1.1
- Arthritic Index (AI), group mean ([2]; study day 34): 1.3
- Arthritic Index (AI), group mean ([2]; study day 36): 2.1
- Arthritic Index (AI), group mean ([2]; study day 39): 3.3
- Arthritic Index (AI), group mean ([2]; study day 41): 3.5
- Arthritic Index (AI), group mean ([2]; study day 42): 3.6
- Toxicity yes/no at the 300 μM conc. [3]: No

Molecule: LNRKAIGLSILLNEECGPGPGP (Possibly HERV) [SG#6]
- Toxicity yes/no at the 300 μM conc. [3]: No

Molecule: LQNKKGLGLSILLNEECGPGPGP (Possibly HERV) [SG#9]
- Toxicity yes/no at the 300 μM conc. [3]: No

Molecule: LQNKRGLGLSILLNEECGPGPGP (Possibly HERV) [SG#8]
- Toxicity yes/no at the 300 μM conc. [3]: No

Molecule: LQNRRGLDLSILLNEECGPGPGP (Possibly HERV) [SG#3]
- Toxicity yes/no at the 300 μM conc. [3]: No

Molecule: LQNRRGLGLSILLNC (Possibly HERV) [SG#4]
- Toxicity yes/no at the 300 μM conc. [3]: No

Molecule: LQNRRGLGLSILLNEE [SG#13]
- Toxicity yes/no at the 300 μM conc. [3]: No

Molecule: LQNRRGLGLSILLNEECEEGPGPGP (Possibly HERV) [SG#2]
- Terminal Individual Paw Score, Front left, group mean [2]: 0.4
- Terminal Individual Paw Score, Front right, group mean [2]: 0.4
- Terminal Individual Paw Score, Rear left, group mean [2]: 0.1
- Terminal Individual Paw Score, Rear right, group mean [2]: 0.5
- effect on diseased mouse weight [2]: no effect
- incidence of disease [2]: 30%
- reduction in disease severity [2]: 90%
- Arthritic Index (AI), group mean ([2]; study day 14): 0
- Arthritic Index (AI), group mean ([2]; study day 21): 0
- Arthritic Index (AI), group mean ([2]; study day 25): 0
- Arthritic Index (AI), group mean ([2]; study day 27): 0.4
- Arthritic Index (AI), group mean ([2]; study day 29): 0.4
- Arthritic Index (AI), group mean ([2]; study day 32): 0.9
- Arthritic Index (AI), group mean ([2]; study day 34): 0.9
- Arthritic Index (AI), group mean ([2]; study day 36): 0.9
- Arthritic Index (AI), group mean ([2]; study day 39): 0.9
- Arthritic Index (AI), group mean ([2]; study day 41): 1.0
- Arthritic Index (AI), group mean ([2]; study day 42): 1.4
- Toxicity yes/no at the 300 μM conc. [3]: No

Molecule: LQNRRGLGLSILLNEECGPGPGP [SG#10]
- Toxicity yes/no at the 300 μM conc. [3]: No

Molecule: LQNRRGLGLSILLNEECGPGPGP [SG#17] (Possibly HERV)
- Toxicity yes/no at the 300 μM conc. [3]: No

Molecule: LQNRRGLGLSILLNEECGPKK (Possibly HERV) [SG#11]
- Toxicity yes/no at the 300 μM conc. [3]: No

Molecule: LQNRRGLGLSILLNEECKKGPGPGP (Possibly HERV) [SG#1]
- Toxicity yes/no at the 300 μM conc. [3]: No

Molecule: LQNRRGLGLSILLNEELQNRRGL [SG#14]
- Toxicity yes/no at the 300 μM conc. [3]: No

Molecule: LQNRRGLGLSILLNEELQNRRGLC (Possibly HERV) [SG#12]
- Toxicity yes/no at the 300 μM conc. [3]: No

Molecule: LQNRRGLLQNRRGLGLSILLNEE (Possibly HERV) [SG#15]
- Terminal Individual Paw Score, Front left, group mean [2]: 0.1
- Terminal Individual Paw Score, Front right, group mean [2]: 0
- Terminal Individual Paw Score, Rear left, group mean [2]: 0.3
- Terminal Individual Paw Score, Rear right, group mean [2]: 0
- effect on diseased mouse weight [2]: no effect
- incidence of disease [2]: 30%
- reduction in disease severity [2]: 97%
- Arthritic Index (AI), group mean ([2]; study day 14): 0
- Arthritic Index (AI), group mean ([2]; study day 21): 0
- Arthritic Index (AI), group mean ([2]; study day 25): 0
- Arthritic Index (AI), group mean ([2]; study day 27): 0.1
- Arthritic Index (AI), group mean ([2]; study day 29): 0.1
- Arthritic Index (AI), group mean ([2]; study day 32): 0.1
- Arthritic Index (AI), group mean ([2]; study day 34): 0.3
- Arthritic Index (AI), group mean ([2]; study day 36): 0.3
- Arthritic Index (AI), group mean ([2]; study day 39): 0.3
- Arthritic Index (AI), group mean ([2]; study day 41): 0.3
- Arthritic Index (AI), group mean ([2]; study day 42): 0.4
- Toxicity yes/no at the 300 μM conc. [3]: No
